The test system of one assay is Micrococcus luteus. Nature of the assay: Intrinsic activity, microtitre plate method, ML. Type of assay: cell-based. Also noted: key: rating 0 = no activity to 5 = biostatic, may be biocide. On the procedure:
(§1) The chemistries were tested for their activity against a range of organisms via a microtitre plate method. The test organisms were: • ML—Micrococcus luteus • SA—Staphylococcus aureus • EC—Escherichia coli • PA—Pseudomonas aeruginosa • CF—Citrobacter freundii • PM—Proteus mirabilis • CA—Candida albicans • SC—Saccharomyces cerevisiae • AN—Aspergillus niger • PF—Penicillium funiculosum • AA—Alternaria alternata
(§2) Using the following rating scale: • 0=no activity • 1=minimal inhibition • 2=inhibition • 3=clear inhibition • 4=clear inhibition biostatic, may be biocide activity • 5=biostatic, may be biocide activity
(§3) Readings of 4 and possibly 3 were considered to be valid for biocidal applications.

The next assay deals with Staphylococcus aureus. Kind of assay: Intrinsic activity, microtitre plate method, SA. Format: cell-based. Also noted: key: 0 = no activity to 5 = biostatic, may be biocide activity. On the procedure: as §1, §2, §3
The next assay has as its system Escherichia coli. Kind of assay: Intrinsic activity, microtitre plate method, EC. Format: cell-based. Also noted: key: rating 0 = no activity to 5 = biostatic, may be biocide. Here is the method: as §1, §2, §3
For another assay, the system named is Pseudomonas aeruginosa. Nature of the assay: Intrinsic activity, microtitre plate method, PA. Format: cell-based. Also noted: key: rating 0 = no activity to 5 = biostatic, may be biocide. Here is the method: as §1, §2, §3
For another assay, the system named is Citrobacter freundii. Kind of assay: Intrinsic activity, microtitre plate method, CF. Type of assay: cell-based. Set-up: key: rating 0 = no activity to 5 = biostatic, may be biocide. On the procedure:
as §1, §2, §3

The next assay concerns Proteus mirabilis. Nature of the assay: Intrinsic activity, microtitre plate method, PM. Type of assay: cell-based. Set-up: key: rating 0 = no activity to 5 = biostatic, may be biocide. On the procedure: as §1, §2, §3
Another assay concerns Bacteria. Kind of assay: Intrinsic activity, microtitre plate method, mean score over bacteria. Format: cell-based, ML, SA, EC, PA, CF, PM. The note with it: performance against organisms/no of organisms, 0 to <3 poor, >3 inhibition, >4 biostasis, biocidal activity. Here is the method: as §1, §2, §3
The subject of a further assay is Candida albicans. Nature of the assay: Intrinsic activity, microtitre plate method, CA. Also noted: key: rating 0 = no activity to 5 = biostatic, may be biocide. Type of assay: cell-based. Here is the method:
as §1, §2, §3

The test system of the next assay is Saccharomyces cerevisiae. Nature of the assay: Intrinsic activity, microtitre plate method, SC. Format: cell-based. Set-up: key: rating 0 = no activity to 5 = biostatic, may be biocide. Here is the method: as §1, §2, §3
The test system of a further assay is Aspergillus niger. Kind of assay: Intrinsic activity, microtitre plate method, AN. Format: cell-based. Also noted: key: rating 0 = no activity to 5 = biostatic, may be biocide. Here is the method: as §1, §2, §3
The test system of the next assay is Penicillium funiculosum. Nature of the assay: Intrinsic activity, microtitre plate method, PF. Type of assay: cell-based. Also noted: key: rating 0 = no activity to 5 = biostatic, may be biocide. On the procedure:
as §1, §2, §3

For a further assay, the system named is Alternaria alternata. Kind of assay: Intrinsic activity, microtitre plate method, AA. Type of assay: cell-based. Set-up: key: rating 0 = no activity to 5 = biostatic, may be biocide. On the procedure:
as §1, §2, §3

In assay [1] the test system is Fungi. Kind of assay: Intrinsic activity, microtitre plate method, mean score over fungi. Type of assay: cell-based, CA, SC, AN, PF, AA. The settings on record: performance against organisms/no of organisms, 0 to <3 poor, >3 inhibition, >4 biostasis, biocidal activity. On the procedure: as §1, §2, §3
The next assay has as its system test bacteria and fungi. Kind of assay: Intrinsic activity against bacteria and fungi, microtitre plate method, summary in words. Format: cell-based. The note with it: for Activity against the test bacteria and fungi: 1000 and 500 ppm a.i. Here is the method: as §1, §2, §3
The subject of a further assay is algae. Kind of assay: Efficacy against algal growth on painted plaster surface (BBA MOAT 33). Format: cell-based. The note with it: 0.5% in paint. On the procedure: (§4) Testing was performed according to the BS3900 G6 and BBA MOAT 33 methods for evaluation versus fungi and algae, respectively. The methods involve painting a substrate panel with the coating and leaching under running water for 72 hours. The substrates are incubated for 56 days after being inoculated with fungi or algae. Performance is judged by comparing with suitable control samples ie without biocide, a positive control and for fungi with substrate panels that have not been leached.
(§5) Performance rating on painted test substrates (Score of 0, 1 and 2 is considered as a pass) • 0=no growth • 1=trace of growth • 2=growth on 1-10% of test face • 3=growth on 10-30% of test face • 4=growth on 30-70% of test face
(§6) 5=growth on 70-100% of test face.

Assay [2] concerns fungi. Kind of assay: Efficacy against fungal growth on painted wooden surface (BS3900 G6). Format: cell-based. The note with it: 0.5% in paint. Here is the method: as §4, §5, §6

Where a name gives a salt, the structure may show the parent alone.

On to `CCCCCCCCCCCCNC(=N)N` [Dodine, 1-dodecylguanidinium hydrochloride or—acetate], for which the ML rating in the assay with Micrococcus luteus (500 ppm a.i.) and in the assay with Micrococcus luteus (1000 ppm a.i.) was 5 throughout. The SA rating in the assay on Staphylococcus aureus (500 ppm a.i.) and in the assay with Staphylococcus aureus (1000 ppm a.i.) was 5 throughout. The EC rating in the assay with Escherichia coli (500 ppm a.i.) and with Escherichia coli (1000 ppm a.i.) was 5 each time. Further, the PA rating in the assay with Pseudomonas aeruginosa (500 ppm a.i.) is 1; in the assay on Pseudomonas aeruginosa (1000 ppm a.i.), 3. For the same molecule, the CF rating in the assay on Citrobacter freundii (500 ppm a.i.) and in the assay with Citrobacter freundii (1000 ppm a.i.) was 5 each time. Also, the PM rating with Proteus mirabilis (500 ppm a.i.) and in the assay with Proteus mirabilis (1000 ppm a.i.) was 5 throughout. For the same molecule, the “Bacteria Mean Score” value in the assay with Bacteria (500 ppm a.i.) is listed as 4.3; in the assay on Bacteria (1000 ppm a.i.), 4.7. The CA rating with Candida albicans (500 ppm a.i.) and in the assay with Candida albicans (1000 ppm a.i.) was 5 throughout. Also, the SC rating in the assay on Saccharomyces cerevisiae (500 ppm a.i.) and in the assay with Saccharomyces cerevisiae (1000 ppm a.i.) was 5 in each case. For the same molecule, the AN rating in the assay with Aspergillus niger (500 ppm a.i.) and with Aspergillus niger (1000 ppm a.i.) was 5 throughout. Moreover, the PF rating in the assay on Penicillium funiculosum (500 ppm a.i.) and in the assay on Penicillium funiculosum (1000 ppm a.i.) was 5 each time. The AA rating in the assay with Alternaria alternata (500 ppm a.i.) and in the assay on Alternaria alternata (1000 ppm a.i.) was 5 each time. The “Fungi Mean Score” value in the assay with Fungi [1] (500 ppm a.i.) and in the assay on Fungi [1] (1000 ppm a.i.) was 5.0 each time. In addition, the “Activity against the test bacteria and fungi” value in the assay on test bacteria and fungi is on record as “good activity”.

As to `CCOCn1c(-c2ccc(Cl)cc2)c(C#N)c(Br)c1C(F)(F)F` [Chlorfenapyr, 4-Brom-2-(p-chlorphenyl)-1-(ethoxymethyl)-5-(tri-fluormethyl)-pyrrole-3-carbonitril], in the assay on algae (painted plaster, leached 72 hours, 28 days after inoculation, mean of ratings 0-5), the “MEAN ALGAL GROWTH RATING 28 days” value is 3 (3=growth on 10-30% of test face). The “MEAN ALGAL GROWTH RATING 56 days” value in the assay on algae (painted plaster, leached 72 hours, 56 days after inoculation, mean of ratings 0-5) was determined as 3.5. In addition, the “% Improved after 56 days (algal growth)” value with algae (painted plaster, versus unpreserved paint, 56 days) is 12.5%. The “Improvement against algal growth on the plaster surface” value in the assay with algae (plaster) is on record as “exhibited an improvement”. Further, the “Improvement against fungal growth on the wood surface” value with fungi [2] is listed as “exhibited an improvement”. In addition, in the assay on fungi [2] (constant running water for 72 hours, 28 days, mean of ratings 0-5), the “MEAN FUNGAL GROWTH RATING - WOOD SUBSTRATE 28 days leached” value is 3 (3=growth on 10-30% of test face). Further, the “MEAN FUNGAL GROWTH RATING - WOOD SUBSTRATE 56 days leached” value with fungi [2] (constant running water for 72 hours, 56 days, mean of ratings 0-5) was 3.5. Also, the “% Improved After 56 days leached (fungal, wood)” value in the assay on fungi [2] (leached 72 hours, versus unpreserved paint) is reported as 12.5%. The “MEAN FUNGAL GROWTH RATING - WOOD SUBSTRATE 28 days as applied” value in the assay with fungi [2] (no leaching with water, 28 days, mean of ratings 0-5) is 5 (5=growth on 70-100% of test face). The “MEAN FUNGAL GROWTH RATING - WOOD SUBSTRATE 56 days as applied” value with fungi [2] (no leaching with water, 56 days, mean of ratings 0-5) is given as 5 (5=growth on 70-100% of test face).

On to `CC(Oc1ccc(Cl)cc1Cl)C(=O)O` (stereo not shown) [Dichlorprop, 2,4-Dichlorophenoxy-propionic acid], for which the ML rating in the assay on Micrococcus luteus (500 ppm a.i.) and in the assay with Micrococcus luteus (1000 ppm a.i.) was 5 each time. The SA rating in the assay on Staphylococcus aureus (500 ppm a.i.) worked out at 3; with Staphylococcus aureus (1000 ppm a.i.), 5. For the same molecule, the results for the EC rating in the assay with Escherichia coli (500 ppm a.i.) and in the assay with Escherichia coli (1000 ppm a.i.) were 3 and 5, respectively. Moreover, the PA rating with Pseudomonas aeruginosa (500 ppm a.i.) is 3; with Pseudomonas aeruginosa (1000 ppm a.i.), 5. The figures for the CF rating in the assay with Citrobacter freundii (500 ppm a.i.) and in the assay with Citrobacter freundii (1000 ppm a.i.) were 3 and 5, respectively. Besides, the PM rating in the assay on Proteus mirabilis (500 ppm a.i.) stood at 3; with Proteus mirabilis (1000 ppm a.i.) it was 5. Moreover, the figures for the “Bacteria Mean Score” value in the assay with Bacteria (500 ppm a.i.) and in the assay on Bacteria (1000 ppm a.i.) were 3.3 and 5.0, respectively. Further, the CA rating in the assay on Candida albicans (500 ppm a.i.) amounted to 2; in the assay with Candida albicans (1000 ppm a.i.), 5. Further, the SC rating was 1 with Saccharomyces cerevisiae (500 ppm a.i.) and 5 in the assay with Saccharomyces cerevisiae (1000 ppm a.i.). In addition, the AN rating in the assay on Aspergillus niger (500 ppm a.i.) and with Aspergillus niger (1000 ppm a.i.) was 5 throughout. For the same molecule, the PF rating in the assay with Penicillium funiculosum (500 ppm a.i.) and in the assay with Penicillium funiculosum (1000 ppm a.i.) was 5 each time. Moreover, the AA rating with Alternaria alternata (500 ppm a.i.) and in the assay on Alternaria alternata (1000 ppm a.i.) was 5 in each case. Also, the “Fungi Mean Score” value with Fungi [1] (500 ppm a.i.) worked out at 3.6; in the assay with Fungi [1] (1000 ppm a.i.), 5.0. For the same molecule, the “Activity against the test bacteria and fungi” value with test bacteria and fungi was “good activity”.

In the case of “(1RS, 5RS;1RS, 5SR)-5- (4-chlorobenzyl)-2,2-di- methyl-1-(1H-1,2,4-tri- azol-1-ylmethyl)cyclo- pentanol [Metconazole]”, the ML rating in the assay on Micrococcus luteus (500 ppm a.i.) was 2; with Micrococcus luteus (1000 ppm a.i.), 3. In addition, the SA rating in the assay with Staphylococcus aureus (500 ppm a.i.) and in the assay on Staphylococcus aureus (1000 ppm a.i.) was 1 each time. Further, the EC rating in the assay with Escherichia coli (500 ppm a.i.) and with Escherichia coli (1000 ppm a.i.) was 0 in each case. Further, the PA rating in the assay with Pseudomonas aeruginosa (500 ppm a.i.) and in the assay on Pseudomonas aeruginosa (1000 ppm a.i.) was 0 in each case. The CF rating with Citrobacter freundii (500 ppm a.i.) and in the assay on Citrobacter freundii (1000 ppm a.i.) was 0 throughout. Moreover, the PM rating in the assay with Proteus mirabilis (500 ppm a.i.) and with Proteus mirabilis (1000 ppm a.i.) was 0 each time. Further, the “Bacteria Mean Score” value is on record as 0.5 in the assay on Bacteria (500 ppm a.i.) and 0.7 in the assay with Bacteria (1000 ppm a.i.). For the same molecule, the CA rating with Candida albicans (500 ppm a.i.) and with Candida albicans (1000 ppm a.i.) was 3 throughout. In addition, the SC rating in the assay with Saccharomyces cerevisiae (500 ppm a.i.) and in the assay on Saccharomyces cerevisiae (1000 ppm a.i.) was 3 each time. The AN rating in the assay with Aspergillus niger (500 ppm a.i.) and in the assay with Aspergillus niger (1000 ppm a.i.) was 5 each time. In addition, the PF rating in the assay with Penicillium funiculosum (500 ppm a.i.) and in the assay with Penicillium funiculosum (1000 ppm a.i.) was 5 throughout. The AA rating in the assay on Alternaria alternata (500 ppm a.i.) and in the assay with Alternaria alternata (1000 ppm a.i.) was 5 throughout. In addition, the “Fungi Mean Score” value with Fungi [1] (500 ppm a.i.) and in the assay on Fungi [1] (1000 ppm a.i.) was 4.2 in each case. In addition, the “Spectrum of activity” value in the assay with test bacteria and fungi (at both concentrations (1000 and 500 ppm a.i.)) was “only display antifungal activity”.

The values are drawn from patent US20070149404A1, “Microbicidal compositions” (BASF AKTIENGESELLSCHAFT, priority 2003, published 2007).
